{"source": "patent US20180369087A1", "about": "“Hydrogen Peroxide Booster System for Enhanced Teeth Whitening” (Colgate-Palmolive Company, priority 2015, published 2018)", "experiment": "SNOBS stability in anhydrous formulation, HPLC", "assay_type": "physicochemical", "details": "for % SNOBS: composition of Table 5", "procedure": "The composition of Table 5 was aged at 40° C. and at room temperature for 8 weeks and 13 weeks respectively. The percentage of SNOBS remaining was quantified by HPLC. The results in Table 6 indicate that there is sufficient SNOBS remaining in the composition after aging at both room temperature and at 40° C. to be efficacious as a booster for the peroxide component in a tooth whitening composition."}
{"smiles": "CCCCCCCCC(=O)Oc1ccc(S(=O)(=O)[O-])cc1.[Na+]", "note": "[SNOBS, sodium nonanoyloxybenzenesulfonate]", "values": [{"measurement": "% Loss of SNOBS", "setting": "4 weeks/40° C.", "result": 3.1, "unit": "%"}, {"measurement": "% SNOBS", "setting": "4 weeks/40° C.", "result": 9.36, "unit": "%"}, {"measurement": "% Loss of SNOBS", "setting": "8 weeks/40° C.", "result": 6.4, "unit": "%"}, {"measurement": "% SNOBS", "setting": "8 weeks/40° C.", "result": 8.99, "unit": "%"}, {"measurement": "% Loss of SNOBS", "setting": "13 weeks/Room Temperature (RT)", "result": 4.06, "unit": "%"}, {"measurement": "% SNOBS", "setting": "13 weeks/Room Temperature (RT)", "result": 9.21, "unit": "%"}, {"measurement": "% SNOBS", "setting": "Initial", "result": 9.6, "unit": "%"}]}
